According to ChEMBL document CHEMBL4811239, “Insertion of metal carbenes into the anilinic N-H bond of unprotected aminobenzenesulfonamides delivers low nanomolar inhibitors of human carbonic anhydrase IX and XII isoforms” (Eur J Med Chem, 2021):
Active and inactive are the calls of the source. No cut-off for these calls is given here.

Assays:
Carbonic anhydrase 1 = Carbonic anhydrase 1 (Homo sapiens, UniProt P00915); test: Inhibition of recombinant human CA1 pre-incubated for 15 mins prior to testing by phenol red-based stopped-flow CO2 hydration assay
Carbonic anhydrase 9 = Carbonic anhydrase 9 (Homo sapiens, UniProt Q16790); test: Inhibition of recombinant human CA9 pre-incubated for 15 mins prior to testing by phenol red-based stopped-flow CO2 hydration assay
Carbonic anhydrase 12 = Carbonic anhydrase 12 (Homo sapiens, UniProt O43570); test: Inhibition of recombinant human CA12 pre-incubated for 15 mins prior to testing by phenol red-based stopped-flow CO2 hydration assay
MDA-MB-231 [1] = test: Antiproliferative activity against human MDA-MB-231 cells assessed as reduction in cell viability at 100 uM after 72 hrs under normoxic condition by MTT assay; format: functional
MDA-MB-231 [2] = test: Antiproliferative activity against human MDA-MB-231 cells assessed as reduction in cell viability at 100 uM after 72 hrs under hypoxic condition by MTT assay; format: functional
MCF7 [3] = test: Antiproliferative activity against human MCF-7 cells assessed as cell survival at 100 uM after 72 hrs under normoxic condition by MTT assay; format: functional; settings: for viability at 100 µM: read-out: Activity
MCF7 [4] = test: Antiproliferative activity against human MCF7 cells assessed as cell survival at 100 uM after 72 hrs under hypoxic condition by MTT assay; format: functional; settings: for viability at 100 µM: read-out: Activity
MDA-MB-231 [5] = test: Antiproliferative activity against human MDA-MB-231 cells assessed as reduction in cell viability after 72 hrs under normoxic condition by MTT assay; settings: MDA-MB-231, 72 h
MDA-MB-231 [6] = test: Antiproliferative activity against human MDA-MB-231 cells assessed as reduction in cell viability after 72 hrs under hypoxic condition by MTT assay; settings: MDA-MB-231, 72 h
MCF7 [7] = test: Antiproliferative activity against human MCF7 cells assessed as reduction in cell viability after 72 hrs under hypoxic condition by MTT assay; settings: MCF7, 72 h
MCF7 [8] = test: Antiproliferative activity against human MCF7 cells assessed as reduction in cell viability after 72 hrs under normoxic condition by MTT assay; settings: MCF7, 72 h
[9] = Antiproliferative activity against human WI26VA4 cells assessed as reduction in cell viability after 72 hrs under normoxic condition by MTT assay; settings: WI26VA4, 72 h
[10] = Antiproliferative activity against human WI26VA4 cells assessed as reduction in cell viability after 72 hrs under hypoxic condition by MTT assay; settings: WI26VA4, 72 h

Sequence of Carbonic anhydrase 12 (O43570 whole entry): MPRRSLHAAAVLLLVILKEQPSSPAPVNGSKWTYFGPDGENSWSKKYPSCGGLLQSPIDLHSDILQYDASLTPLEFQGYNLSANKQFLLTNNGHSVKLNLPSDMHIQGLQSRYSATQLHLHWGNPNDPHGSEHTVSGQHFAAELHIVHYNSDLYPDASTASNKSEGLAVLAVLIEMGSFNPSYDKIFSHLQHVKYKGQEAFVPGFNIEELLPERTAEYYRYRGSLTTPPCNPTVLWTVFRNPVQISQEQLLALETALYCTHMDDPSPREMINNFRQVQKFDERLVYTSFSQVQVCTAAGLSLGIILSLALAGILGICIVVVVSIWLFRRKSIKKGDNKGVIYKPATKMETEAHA
Sequence of Carbonic anhydrase 1 (P00915 whole entry): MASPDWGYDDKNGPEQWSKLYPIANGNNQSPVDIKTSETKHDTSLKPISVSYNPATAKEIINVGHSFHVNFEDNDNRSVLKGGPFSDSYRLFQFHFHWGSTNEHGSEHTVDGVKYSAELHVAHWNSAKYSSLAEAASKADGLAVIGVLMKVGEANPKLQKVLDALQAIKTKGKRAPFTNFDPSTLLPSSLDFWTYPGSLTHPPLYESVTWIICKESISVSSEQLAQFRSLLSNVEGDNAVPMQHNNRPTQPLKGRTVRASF

Row | Structure (SMILES) | Ki (Carbonic anhydrase 1) [nM] | Ki (Carbonic anhydrase 9) [nM] | Ki (Carbonic anhydrase 12) [nM] | Activity (MDA-MB-231 [1]) | Activity (MDA-MB-231 [2]) | Activity (MCF7 [3]) | Activity (MCF7 [4]) | IC50 (MDA-MB-231 [5]) [nM] | IC50 (MDA-MB-231 [6]) [nM] | IC50 (MCF7 [7]) [nM] | IC50 (MCF7 [8]) [nM] | viability at 100 µM (MCF7 [3]) [%] | viability at 100 µM (MCF7 [4]) [%] | IC50 [9] [nM] | IC50 [10] [nM]
1 | Cc1ccc(C(=O)CNc2ccc(S(N)(=O)=O)cc2)cc1 | 53.3 | 15.2 | 67.4 | inactive | inactive | inactive | inactive |  |  |  |  |  |  |  | 
2 | CCOC(=O)C(Nc1ccc(S(N)(=O)=O)cc1)c1ccc(OC)c(OC)c1 (configuration not stated) | 5880 | 6.5 | 35.7 | inactive | inactive | inactive | inactive |  |  |  |  |  |  |  | 
3 | NS(=O)(=O)c1ccc(NC2CCN(c3ccccc3)C2=O)cc1 (configuration not stated) | 62 | 9.5 | 24.9 | inactive | inactive | inactive | inactive |  |  |  |  |  |  |  | 
4 | CCOC(=O)C(Nc1ccc(S(N)(=O)=O)cc1)C(=O)c1ccc(OC)cc1 (configuration not stated) | 314 | 12.5 | 16.5 | inactive | inactive | inactive | inactive |  |  |  |  |  |  |  | 
5 | COc1ccccc1CC1=C(Nc2ccc(S(N)(=O)=O)cc2)C(=O)N(c2ccccc2)C1=O | > 10000 | 68 | 87.9 |  |  | Active | Active |  |  |  |  |  |  |  | 
6 | COC(=O)C(Nc1cccc(S(N)(=O)=O)c1)C(=O)c1ccc(OC)cc1 (configuration not stated) | 2550 | 91.9 |  | inactive | inactive | inactive | inactive |  |  |  |  |  |  |  | 
7 | CCOC(=O)C(C(=O)Nc1ccc(S(N)(=O)=O)cc1)c1ccccc1 (configuration not stated) | 311 | 61.5 | 41.6 | inactive | inactive | inactive | inactive |  |  |  |  |  |  |  | 
8 | CCOC(=O)C(C(=O)Nc1ccc(S(N)(=O)=O)cc1)C(C)C (configuration not stated) | 56.9 | 32 |  | inactive | inactive | inactive | inactive |  |  |  |  |  |  |  | 
9 | CC(C)OC(=O)C(Nc1ccc(S(N)(=O)=O)cc1)C(=O)OC(C)C | 105 | 28.1 | 61.4 | inactive | inactive | inactive | inactive |  |  |  |  |  |  |  | 
10 | NS(=O)(=O)c1ccc(NC2CCCCCC2=O)cc1 (configuration not stated) | 202 | 6.4 | 49.2 | 30% | 30% | inactive | inactive |  |  |  |  |  |  |  | 
11 | CCOC(=O)C(Nc1cccc(S(N)(=O)=O)c1)C(=O)c1ccccc1 (configuration not stated) | 1570 | 58.6 | 82.9 | 30% | 30% | inactive | inactive |  |  |  |  |  |  |  | 
12 | CC(C)C(C(=O)Nc1cccc(S(N)(=O)=O)c1)C(=O)c1ccccc1 (configuration not stated) | 1360 | 71.1 | 59.6 | inactive | inactive | inactive | inactive |  |  |  |  |  |  |  | 
13 | COCCOC(=O)C(Nc1ccc(S(N)(=O)=O)cc1)C(=O)OCCOC | 85.8 | 36.8 | 45 | inactive | inactive | inactive | inactive |  |  |  |  |  |  |  | 
14 | NS(=O)(=O)c1ccc(NCC(=O)N2CCN(Cc3ccc(Cl)cc3)CC2)cc1 | 146 | 21.2 | 11.3 | inactive | inactive | inactive | inactive |  |  |  |  |  |  |  | 
15 | Cc1ccc(C(=O)CNc2cccc(S(N)(=O)=O)c2)cc1 | 294 | 63.9 | 208 | inactive | inactive | inactive | inactive |  |  |  |  |  |  |  | 
16 | COC(=O)C(Nc1ccc(S(N)(=O)=O)cc1)C(=O)c1ccccc1OC (configuration not stated) | 829 | 25.6 | 26.5 |  |  |  |  |  |  |  |  |  |  |  | 
17 | NS(=O)(=O)c1ccc(NC2CCN(c3nccs3)C2=O)cc1 (configuration not stated) | 138 | 36.8 | 18.8 | inactive | inactive | inactive | inactive |  |  |  |  |  |  |  | 

Row | Structure (SMILES) | Ki (Carbonic anhydrase 1) [nM] | Ki (Carbonic anhydrase 9) [nM] | Ki (Carbonic anhydrase 12) [nM] | Activity (MDA-MB-231 [1]) | Activity (MDA-MB-231 [2]) | Activity (MCF7 [3]) | Activity (MCF7 [4]) | IC50 (MDA-MB-231 [5]) [nM] | IC50 (MDA-MB-231 [6]) [nM] | IC50 (MCF7 [7]) [nM] | IC50 (MCF7 [8]) [nM] | viability at 100 µM (MCF7 [3]) [%] | viability at 100 µM (MCF7 [4]) [%] | IC50 [9] [nM] | IC50 [10] [nM]
18 | Cc1ccc(N2C(=O)C(Cc3ccc(Cl)cc3)=C(Nc3cccc(S(N)(=O)=O)c3)C2=O)cc1 | > 10000 | 635 | 1070 |  |  |  |  | 37200 | 36800 | 15300 | 14900 | 10 | 10 | 22000 | 35600
19 | NS(=O)(=O)c1cccc(NCC(=O)N2CCN(Cc3ccc(Cl)cc3)CC2)c1 | 3950 | 116 | 36.1 | inactive | inactive | inactive | inactive |  |  |  |  |  |  |  | 
20 | CCOC(=O)C(Nc1ccc(S(N)(=O)=O)cc1)C(=O)OCC | 135 | 52.4 | 57.2 | inactive | inactive | inactive | inactive |  |  |  |  |  |  |  | 
21 | COC(=O)C(Nc1ccc(S(N)(=O)=O)cc1)C(=O)OC | 166 | 58.1 |  | inactive | inactive | inactive | inactive |  |  |  |  |  |  |  | 
22 | CCOC(=O)C(Nc1ccc(S(N)(=O)=O)cc1)c1ccc(Cl)cc1 (configuration not stated) | 135 | 54.3 | 63 | 30% | 30% | inactive | inactive |  |  |  |  |  |  |  | 
23 | CCN(CC)C(=O)CNc1ccc(S(N)(=O)=O)cc1 | 243 | 89.1 | 33.2 | inactive | inactive | inactive | inactive |  |  |  |  |  |  |  | 
24 | COCC(=O)C(Nc1ccc(S(N)(=O)=O)cc1)C(=O)OC (configuration not stated) | 69.8 | 64.1 | 24.7 | inactive | inactive | inactive | inactive |  |  |  |  |  |  |  | 
25 | CC(C(=O)Nc1ccc(S(N)(=O)=O)cc1)C(=O)c1ccc(Cl)cc1 (configuration not stated) | 215 | 34.3 | 22.6 | 30% | 30% | Active | Active |  |  |  |  |  |  |  | 
26 | CCOC(=O)C(C(=O)Nc1cccc(S(N)(=O)=O)c1)C(C)C (configuration not stated) | 346 | 70.1 | 113 | inactive | inactive | inactive | inactive |  |  |  |  |  |  |  | 
27 | CC(C)(C)C(=O)CNc1cccc(S(N)(=O)=O)c1 | 343 | 41.7 | 24.1 | inactive | inactive | inactive | inactive |  |  |  |  |  |  |  | 
28 | CCN(CC)C(=O)CNc1cccc(S(N)(=O)=O)c1 | 70.6 | 45.9 | 83.7 | inactive | inactive | inactive | inactive |  |  |  |  |  |  |  | 
29 | CC(C)C(C(=O)Nc1ccc(S(N)(=O)=O)cc1)C(=O)c1ccccc1 (configuration not stated) | 183 | 30.1 | 35.6 | inactive | inactive | inactive | inactive |  |  |  |  |  |  |  | 
30 | COc1ccc(C(=O)CNc2ccc(S(N)(=O)=O)cc2)cc1 | 124 | 10.1 | 81.7 | inactive | inactive | Active | Active |  |  |  |  |  |  |  | 
31 | NS(=O)(=O)c1ccc(NC2CCN(c3cccc(C(F)(F)F)c3)C2=O)cc1 (configuration not stated) | 463 | 19.7 | 13.8 | inactive | inactive | inactive | inactive |  |  |  |  |  |  |  | 
32 | COc1ccc(C(=O)CNc2cccc(S(N)(=O)=O)c2)cc1 | 920 | 54.3 | 189 | inactive | inactive | inactive | inactive |  |  |  |  |  |  |  | 
33 | Cc1ccc(N2C(=O)C(Cc3ccc(Cl)cc3)=C(Nc3ccc(S(N)(=O)=O)cc3)C2=O)cc1 | > 10000 | 81.9 | 128 |  |  |  |  | 16600 | 15600 | 11500 | 10800 | 10 | 10 | 21900 | 26200
34 | CCOC(=O)C(Nc1ccc(S(N)(=O)=O)cc1)C(=O)c1ccccc1 (configuration not stated) | 245 | 18 | 21.8 | inactive | inactive | inactive | inactive |  |  |  |  |  |  |  | 
